US20260258084A1, “New Peptides as Selective IL-23 Receptor Antagonists” (Sanofi, priority 2022, published 2026)
Converted amounts (≈) assume the structure as drawn. Read-outs that look alike come from different tables or passages of the source. Starred links: 1 amine or outer side, 2 acyl side, 3 side chain; linkers in the order of their positions; H or OH if unused. Positions of bridges follow the written chain, without caps; N, C: chain ends. Non-standard residues stand in square brackets, D forms with d. Residues, ends and D or L forms follow the SMILES beside them. *: point of attachment. X3 = CN(CCCCC(=O)N[C@@H](CS[*:2])C(=O)[*:1])[*:3]; Trp(7-Me) = Cc1cccc2c(C[C@H](N)C(=O)O)c[nH]c12; 2Nal = N[C@@H](Cc1ccc2ccccc2c1)C(=O)O; AEF = NCCOc1ccc(C[C@H](N)C(=O)O)cc1; 3Pal = N[C@@H](Cc1cccnc1)C(=O)O; αMeL = CC(C)C[C@](C)(N)C(=O)O; Thp = NC1(C(=O)O)CCOCC1; Me2NCH2CH2 = CN(C)CC*; Aib = CC(C)(N)C(=O)O; Ahx = NCCCCCC(=O)O; Ava = NCCCCC(=O)O; Sar = CNCC(=O)O

Assays:
[1] = target: T1, human interleukin-23 receptor (recombinant human IL-23R-Fc chimera) (Homo sapiens, UniProt Q5VWK5); assay: Human ELISA IL23/IL23R (assay for specific human IL23R antagonists); type: binding; settings: Table 10; read-out: Human ELISA IL23/IL23R IC50
T1 construct: Fc (IgG Fc fusion)
In short: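 Competition format: peptide dilutions compete for IL23R-Fc chimera (0.1 μg/ml final, 60 min, room temperature) binding to immobilized human IL23 coated at […] overnight at 4 °C. Read-out is fluorogenic HRP signal from goat anti-hu-IgG1 detecting captured receptor.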

[2] = system: IL-23 induced STAT3 signaling in HEK-Blue™ IL-23 cells; assay: IL-23 induced STAT3 signaling in HEK-Blue IL-23 cells (SEAP reporter); type: cell-based; settings: human IL23 0.25 ng/ml, read-out: pSTAT3
In short: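 Secreted SEAP, read at OD 620-655 nm after 45 min QUANTI-Blue development, reports STAT3 activation. Beforehand, cells were exposed to peptide dilutions for 60 min at 37 °C and then to 0.25 ng/ml final human IL-23 overnight, at 10,000 cells/well.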

[3] = Solubility testing of peptides at different pH; type: physicochemical; settings: target concentration 1 mg/ml, 2 hours agitation
In short: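 Four buffers were used: 50 mM HCl pH 1.2 and 50 mM phosphate at pH 6.5, 7.4 and 9.0, each receiving dried-down compound at a 1 mg/mL target. After 2 h gentle shaking and 0.45 μm filtration, UV peak areas were compared with a DMSO standard curve of known concentration, allowing for extinction coefficients.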

[4] = Chemical stability assessment of peptides (relative purity loss); type: physicochemical; settings: 24 hours at 37° C.; for Chemical stability (relative purity loss) Buffer pH 1.2: 50 mM HCl pH 1.2 + acetonitrile (1:1); for Chemical stability (relative purity loss) Buffer pH 6.5: 50 mM phosphate buffer pH 6.5 + acetonitrile (1:1); for Chemical stability (relative purity loss) Buffer pH 7.4: 50 mM phosphate buffer pH 7.4 + acetonitrile (1:1)
In short: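 Peptide solutions at 1 mg/ml (purity-corrected) in 1:1 acetonitrile with 50 mM HCl pH 1.2, or 50 mM phosphate pH 6.5 or pH 7.4, held 24 hours at 2° C. and 37° C. Supernatants analysed by UHPLC-UV; relative purity loss taken as percent drop in peak-area purity from 0 to 24 hours at 37° C.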

Pepsin = system: T2, Pepsin; assay: Protease stability in simulated gastric fluid (Pepsin-SGF, FaSSGF); type: in vitro ADME; settings: simulated gastric fluid with pepsin (Pepsin-SGF), 60 min, 1 μM peptide, 37° C., read-out: FaSSGF 60 (min), remaining percent of peptide
T2 construct: purchased Merck Millipore
In short: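 LCMS/MS peak areas, normalised to the time-0 sample as 100%, give percent remaining. Conditions: 37° C incubation of 1 μM final peptide in simulated gastric fluid with pepsin; ethanol/0.1% HCOOH quench at 0, 60, 120, 240 min.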

[5] = 50 mM HCl buffer, 50 mM HCl pH 1.2, read-out: Solubility Buffer pH 1.2
[6] = 50 mM phosphate buffer pH 6.5, read-out: Solubility Buffer pH 6.5
[7] = 50 mM phosphate buffer pH 7.4, read-out: Solubility Buffer pH 7.4
[8] = 50 mM phosphate buffer pH 9.0, read-out: Solubility Buffer pH 9.0

Row | SMILES | IC50 [1] | solubility at 2 h [3, 5] | solubility at 2 h [3, 6] | solubility at 2 h [3, 7] | solubility at 2 h [3, 8] | Chemical stability (relative purity loss) Buffer pH 1.2 [4] | Chemical stability (relative purity loss) Buffer pH 6.5 [4] | Chemical stability (relative purity loss) Buffer pH 7.4 [4] | remaining at 1 h, 1 µM (Pepsin) | IC50 [2]
1 | CC(=O)N[C@H]1CCCCNC(=O)[C@@H]2CSSC[C@H](NC(=O)[C@H](CCC(N)=O)NC(=O)[C@H](Cc3c[nH]c4ccccc34)NC1=O)C(=O)N[C@@H](Cc1ccc(OCCN)cc1)C(=O)N[C@@H](Cc1ccc3ccccc3c1)C(=O)NC(C)(C)C(=O)N[C@H](C(=O)N[C@@H](C)C(=O)N[C@H](CC(C)C)C(N)=O)CCC(=O)N(C)CCCCC(=O)N2 [compound 19] (Ac-KWQC[AEF][2Nal][Aib]EA[dL]-NH2; linker 1-4-8 via X3) | 0.74 nM | 10 µg/mL (≈ 6.24 µM) | 20 µg/mL (≈ 12.5 µM) | < 10 µg/mL | < 10 µg/mL | 7.9% | 0.0% | 0.0% | 79% | 88.3 nM
2 | CC(=O)N[C@H]1CCCCNC(=O)[C@@H]2CSSC[C@H](NC(=O)[C@H](CCC(N)=O)NC(=O)[C@H](Cc3c[nH]c4ccccc34)NC1=O)C(=O)N[C@@H](Cc1ccc(OCCN)cc1)C(=O)N[C@@H](Cc1ccc3ccccc3c1)C(=O)N[C@@](C)(CC(C)C)C(=O)N[C@H](C(=O)N[C@@H](C)C(=O)NCC(N)=O)CCC(=O)N(C)CCCCC(=O)N2 [compound 18] (Ac-KWQC[AEF][2Nal][αMeL]EAG-NH2; linker 1-4-8 via X3) | 0.71 nM | 10 µg/mL (≈ 6.29 µM) | < 10 µg/mL | < 10 µg/mL | < 10 µg/mL | 11.4% | 0.1% | 0.0% | 60% | 69.5 nM
3 | CC(=O)N[C@H]1CCCCNC(=O)[C@@H]2CSSC[C@H](NC(=O)[C@H](CCC(N)=O)NC(=O)[C@H](Cc3c[nH]c4ccccc34)NC1=O)C(=O)N[C@@H](Cc1ccc(OCCN)cc1)C(=O)N[C@@H](Cc1ccc3ccccc3c1)C(=O)NC1(CCOCC1)C(=O)N[C@H](C(=O)N[C@@H](C)C(=O)N[C@H](CC(C)C)C(N)=O)CCC(=O)N(C)CCCCC(=O)N2 [compound 34] (Ac-KWQC[AEF][2Nal][Thp]EA[dL]-NH2; linker 1-4-8 via X3) | 0.57 nM | ≥ 970 µg/mL | ≥ 910 µg/mL | 270 µg/mL (≈ 164 µM) | 140 µg/mL (≈ 85.1 µM) | 7.9% | 0.0% | 0.3% | 84% | 13.3 nM
4 | C[C@@H](O)[C@@H]1NC(=O)[C@H](CC(N)=O)NC(=O)[C@@H]2CSSC[C@H](NC(=O)[C@H](CCC(N)=O)NC(=O)[C@H](Cc3c[nH]c4ccccc34)NC1=O)C(=O)N[C@@H](Cc1ccc(OCCN)cc1)C(=O)N[C@@H](Cc1ccc3ccccc3c1)C(=O)NC(C)(C)C(=O)N[C@H](C(=O)N[C@@H](CC(N)=O)C(=O)NCC(N)=O)CC(=O)NCCCCCC(=O)N2 [compound 9] ([Ahx]CNTWQC[AEF][2Nal][Aib]DNG-NH2; disulfide 2-7; lactam N-11) | 0.44 nM | ≥ 1040 µg/mL | ≥ 1060 µg/mL | ≥ 960 µg/mL | 750 µg/mL (≈ 463 µM) | 13.8% | 5.5% | 19.8% | 2% | 65 nM
5 | CC(=O)NCCCC[C@@H]1NC(=O)[C@H](Cc2c[nH]c3c(C)cccc23)NC(=O)[C@H]([C@@H](C)O)NC(=O)[C@H](CC(N)=O)NC(=O)[C@@H]2CSSC[C@H](NC1=O)C(=O)N[C@@H](Cc1ccc(OCCN(C)C)cc1)C(=O)N[C@@H](Cc1ccc3ccccc3c1)C(=O)NC1(CCOCC1)C(=O)N[C@H](C(=O)N[C@@H](CC(N)=O)C(=O)N[C@@H](Cc1cccnc1)C(N)=O)CCC(=O)NCCCCC(=O)N2 [compound 51] ([Ava]CNT[Trp(7-Me)]K(Ac)CY(Me2NCH2CH2)[2Nal][Thp]EN[3Pal]-NH2; disulfide 2-7; lactam N-11) | 0.19 nM | ≥ 1020 µg/mL | ≥ 930 µg/mL | 430 µg/mL (≈ 234 µM) | 100 µg/mL (≈ 54.4 µM) | 17.1% | 0.2% | 0.7% | 94% | 0.05 nM

Further compounds by falling IC50 [1], results first:

Row | IC50 [1] | solubility at 2 h [3, 5] | solubility at 2 h [3, 6] | solubility at 2 h [3, 7] | solubility at 2 h [3, 8] | Chemical stability (relative purity loss) Buffer pH 1.2 [4] | Chemical stability (relative purity loss) Buffer pH 6.5 [4] | Chemical stability (relative purity loss) Buffer pH 7.4 [4] | remaining at 1 h, 1 µM (Pepsin) | SMILES | IC50 [2]
6 | 1.16 nM | < 10 µg/mL | < 10 µg/mL | < 10 µg/mL | < 10 µg/mL | 4.1% | 0.1% | 0.2% | 88% | CC(=O)N[C@H]1CCCCNC(=O)[C@@H]2CSSC[C@H](NC(=O)[C@H](CCC(N)=O)NC(=O)[C@H](Cc3c[nH]c4ccccc34)NC1=O)C(=O)N[C@@H](Cc1ccc(OCCN)cc1)C(=O)N[C@@H](Cc1ccc3ccccc3c1)C(=O)N[C@@](C)(CC(C)C)C(=O)N[C@H](C(=O)N[C@@H](C)C(=O)N[C@H](CC(C)C)C(N)=O)CCC(=O)N(C)CCCCC(=O)N2 [compound 44] (Ac-KWQC[AEF][2Nal][αMeL]EA[dL]-NH2; linker 1-4-8 via X3) | 42.5 nM
7 | 0.33 nM | ≥ 1070 µg/mL | ≥ 950 µg/mL | ≥ 1000 µg/mL | 810 µg/mL (≈ 496 µM) | 13.2% | 1.1% | 4.2% | 62% | CC(=O)N[C@H]1CCCCNC(=O)[C@@H]2CSSC[C@H](NC(=O)[C@H](CCC(N)=O)NC(=O)[C@H](Cc3c[nH]c4ccccc34)NC1=O)C(=O)N[C@@H](Cc1ccc(OCCN)cc1)C(=O)N[C@@H](Cc1ccc3ccccc3c1)C(=O)NC1(CCOCC1)C(=O)N[C@H](C(=O)N[C@@H](CC(N)=O)C(=O)NCC(N)=O)CCC(=O)N(C)CCCCC(=O)N2 [compound 16] (Ac-KWQC[AEF][2Nal][Thp]ENG-NH2; linker 1-4-8 via X3) | 32.1 nM
8 | 0.32 nM | ≥ 1160 µg/mL | ≥ 1060 µg/mL | ≥ 1180 µg/mL | 350 µg/mL (≈ 189 µM) | 15.7% | 0.0% | 2.3% | 100% | CC(=O)NCCCC[C@@H]1NC(=O)[C@H](Cc2c[nH]c3c(C)cccc23)NC(=O)[C@H]([C@@H](C)O)NC(=O)[C@H](CC(N)=O)NC(=O)[C@@H]2CSSC[C@H](NC1=O)C(=O)N[C@@H](Cc1ccc(OCCN(C)C)cc1)C(=O)N[C@@H](Cc1ccc3ccccc3c1)C(=O)NC(C)(C)C(=O)N[C@H](C(=O)N[C@@H](CC(N)=O)C(=O)N[C@@H](Cc1c[nH]cn1)C(=O)N(C)CC(N)=O)CCC(=O)NCCCCC(=O)N2 [compound 45] ([Ava]CNT[Trp(7-Me)]K(Ac)CY(Me2NCH2CH2)[2Nal][Aib]ENH[Sar]-NH2; disulfide 2-7; lactam N-11) | 0.67 nM
